For one data set, the system named is NIH/OlaHsd mice. The data set is described as follows: Mouse immunization with OVA, OVA-specific serum antibodies (ELISA). In kind it is in vivo. The conditions noted are these: s.c. days 0, 21, 42; OVA 10 μg + compound 50 μg; 7 days after last dose. The procedure: NIH/OlaHsd inbred mice were raised at the Institute of Immunology, Croatia. All mice used were females, from 2.0 to 2.5 months old. During the experimental period, the mice were housed in the Animal Facility of the Institute of Immunology, with food and water provided ad libitum.
Sex-matched NIH/OlaHsd mice (five per group) were immunized subcutaneously into the tail base with OVA (10 μg; Serva, Germany) alone or plus the compounds (50 μg) on days 0, 21, and 42. The injection volume in all of the experimental groups was 0.1 mL per mouse. On the seventh day after the second booster dose, the mice were anesthetized with i.p. application of ketamine/xylazine (25 mg/kg each) prior to blood collection from the axillary plexus. Individual sera from each animal were decomplemented at 56 °C for 35 min and then stored at −20 °C until tested.
The levels of the OVA-specific total IgG, IgG1, and IgG2a in mice sera were determined by ELISA. Briefly, high-binding ELISA plates (Costar) were coated with a 15 μg/mL solution of OVA (Serva, Germany) in carbonate buffer (pH 9.6). Nonspecific antibody binding was blocked by 0.5% w/v bovine serum albumin in PBS-T (0.05% [v/v] Tween 20 in PBS) for 2 h at 37 °C. After washing, five serial dilutions of mice sera and standard preparations were added in duplicates. Plates were incubated overnight at room temperature, washed, and analyzed for OVA-specific IgG levels by incubation with HRP-conjugated goat anti-mouse IgG (2 h at 37 °C; Bio-Rad Laboratories), and then after washing, with 0.6 mg/mL o-phenylenediaminedihydrochloride solution in citrate-phosphate buffer, pH 5.0, with 0.5 μL 30% H2O2/mL for 30 min at room temperature in the dark. The enzymatic reaction was stopped with 12.5% H2SO4, and absorbance at 492 nm was measured using a microplate reader (Thermo Fisher Scientific, Waltham, MA).
For the determination of OVA-specific IgG1 and IgG2a, the plates were incubated with biotin-conjugated rat anti-mouse IgG1 or IgG2a (2 h at 37 °C; PharMingen, Becton Dickinson) and subsequently with streptavidin-peroxidase (Pharmingen) for 2 h at 37 °C. After washing, the substrate solution was added and incubated for 30 min at room temperature in the dark, as described above. The enzymatic reaction was stopped with 12.5% H2SO4 and absorbance at 492 nm was measured using a microplate reader. The relative quantities of antibodies were determined by parallel line assays using appropriate standard preparations of anti-OVA IgG, anti-OVA IgG1, and anti-OVA IgG2a antibodies with voluntarily assigned 20.000 AU/mL, 400.000 AU/mL, and 5000 AU/mL, respectively.[65] Statistical significance was determined with one-way ANOVA with subsequent Dunnett’s multiple comparisons test.

For the next data set, the system named is MEC1 cells. The data set is described as follows: PBMC cytotoxicity against MEC1 cancer cells. In kind it is cell-based, human. The conditions noted are these: PBMCs stimulated 18 h, 1 μM; 4 h coincubation, effector:target 40:1. The method, then:
K562 cells are a chronic myelogenous leukemia cell line (Cat. code: CCL-243; ATCC, Manassas, VA)[60] and MEC1 cells are a B-chronic lymphocytic leukemia cell line (Cat. code: ACC 497; DSMZ GmbH, Braunschweig, Germany).[61]
The PBMC cytotoxicity assays using K562 and MEC1 cells were performed as described previously, with some modifications.[64] PBMCs were seeded (4 × 10^5 cells/well) in duplicate in 96-well U-bottom plates and treated with the compounds (1 nM–1 μM) or vehicle (0.1% DMSO) for 18 h. […] Cells that were positive for both CFSE and Sytox blue were defined as dead K562 and MEC1 cells. The gating strategy is described in Figure S4. PBMCs alone and CFSE-labeled cancer cells alone were also treated with the compounds at the same concentrations and stained with Sytox blue to exclude any direct cytotoxicity of the compounds toward the PBMCs and cancer cells. Statistical significance was determined with one-way ANOVA with subsequent Bonferroni’s multiple comparisons test.

In a further data set the target is T1, NOD2 (Homo sapiens, UniProt Q9HC29).
T1 construct: host or cells: HEK-Blue NOD2 (HEK293-derived)
T1 sequence (Q9HC29 whole entry): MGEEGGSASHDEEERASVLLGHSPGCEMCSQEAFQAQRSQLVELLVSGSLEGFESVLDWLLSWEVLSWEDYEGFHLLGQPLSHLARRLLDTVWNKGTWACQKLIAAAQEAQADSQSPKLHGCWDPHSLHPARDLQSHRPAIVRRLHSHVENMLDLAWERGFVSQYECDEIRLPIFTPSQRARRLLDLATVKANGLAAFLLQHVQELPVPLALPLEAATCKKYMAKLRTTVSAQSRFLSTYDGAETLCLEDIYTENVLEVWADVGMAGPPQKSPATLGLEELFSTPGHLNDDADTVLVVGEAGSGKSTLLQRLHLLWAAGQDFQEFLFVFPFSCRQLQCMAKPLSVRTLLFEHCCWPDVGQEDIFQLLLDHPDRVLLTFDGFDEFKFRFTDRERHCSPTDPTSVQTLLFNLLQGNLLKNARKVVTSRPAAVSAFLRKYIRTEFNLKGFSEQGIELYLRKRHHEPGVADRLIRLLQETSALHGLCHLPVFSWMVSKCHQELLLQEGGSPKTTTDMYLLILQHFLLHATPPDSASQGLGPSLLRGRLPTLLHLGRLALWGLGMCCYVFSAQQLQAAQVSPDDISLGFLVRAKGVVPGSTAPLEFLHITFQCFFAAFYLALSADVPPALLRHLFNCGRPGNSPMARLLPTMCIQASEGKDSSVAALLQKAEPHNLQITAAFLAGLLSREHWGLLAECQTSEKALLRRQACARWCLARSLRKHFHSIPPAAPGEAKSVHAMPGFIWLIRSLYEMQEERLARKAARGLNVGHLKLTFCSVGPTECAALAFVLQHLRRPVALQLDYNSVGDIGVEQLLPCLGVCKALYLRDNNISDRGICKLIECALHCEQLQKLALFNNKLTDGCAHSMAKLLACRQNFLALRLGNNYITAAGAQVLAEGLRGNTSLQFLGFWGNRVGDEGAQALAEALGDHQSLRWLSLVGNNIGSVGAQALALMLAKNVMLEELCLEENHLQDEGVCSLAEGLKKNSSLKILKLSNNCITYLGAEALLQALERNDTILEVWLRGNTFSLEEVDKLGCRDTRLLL
Put plainly: NF-κB transcriptional activity (SEAP reporter) in HEK-Blue NOD2 cells. In kind it is cell-based. The conditions noted are these: 18 h. The source says: HEK-Blue NOD1 (Cat. code: hkb-hnod1), NOD2 (Cat. code: hkb-hnod2), and TLR7 (Cat. code: hkb-htlr7) cell lines (Invivogen, San Diego, CA) are derived from HEK293 cells by co-transfection of the hNOD1, hNOD2, or hTLR7 genes, respectively, and a nuclear factor-κB (NF-κB)-inducible secreted embryonic alkaline phosphatase (SEAP) reporter gene. Following activation of the respective receptors, the resulting NF-κB induces the production of SEAP, the levels of which can be quantified colorimetrically. […] All of the subsequent passages were cultured in medium additionally supplemented with 100 μg/mL Zeocin (Invivogen) and 30 μg/mL Blasticidin (Invivogen) for HEK-Blue NOD1 and NOD2 cells, or with 100 μg/mL Zeocin (Invivogen) and 10 μg/mL Blasticidin (Invivogen) for HEK-Blue TLR7 cells.
After 18 h of incubation (37 °C, 5% CO2), SEAP activity was determined spectrophotometrically as absorbance at 630 nm (BioTek Synergy microplate reader; Winooski, VT). EC50 values were calculated using the Prism software (version 9; GraphPad Software, CA).

Another data set deals with human PBMCs. In kind it is cell-based.
Data set [1] is described as follows: Kinetic solubility measurement. In kind it is physicochemical.
Method: The content of DMSO in all solutions was fixed to 2% by adding the respective amounts of DMSO. The column used was Waters Acquity UPLC BEH C18 (1.7 μm, 2.1 × 50 mm^2). […] The column was thermostated at 40 °C.

The structures appear in SMILES notation. ≈ marks a conversion by molar mass, not a printed value. Read-outs that look alike come from different tables or passages of the source.

Turning to `CCCCOc1nc(N)c2nc(O)n(Cc3ccc(C(=O)NCCOCCNC(=O)CC[C@@H](NC(=O)[C@@H](NC(=O)CNC(=O)/C=C/c4ccc(O)c(OC)c4)C(C)C)C(=O)OCC)cc3)c2n1` [Compound 4, Ethyl N5-(2-(2-(4-((6-amino-2-butoxy-8-hydroxy-9H-purin-9-yl)methyl)benzamido)ethoxy)ethyl)-N2-((E)-3-(4-hydroxy-3-methoxyphenyl)acryloyl)glycyl-L-valyl-D-glutaminate], the “IgG2a/IgG1 ratio (Th1/Th2 polarization)” value in the data set on NIH/OlaHsd mice is recorded as “trend toward increased IgG2a/IgG1 ratios”. For the same compound, the “OVA-specific IgG1 titers” value with NIH/OlaHsd mice was “increased the titers”. In the data set on NIH/OlaHsd mice, the “OVA-specific IgG2a titers” value is “increased the titers”. For the same compound, the “serum OVA-specific IgG titers” value in the data set with NIH/OlaHsd mice is “significantly higher”. Besides, the “cytolytic activity of PBMCs against MEC1 cells” value with MEC1 cells is reported as “significantly enhanced”. Besides, the “NOD2 activation at the highest concentration tested” value at NOD2 (10 μM) is recorded as “activated NOD2 only to a minor extent”. Also, the EC50 at NOD2 (eight concentrations 1 nM to 10 μM, NA, not active) was greater than 10 µM. Besides, the “Genes in KEGG pathway, 4-enriched” value in the data set with human PBMCs (Chemokine signaling pathway (total 182)) turned out to be 40; in the data set with human PBMCs (Hematopoietic cell lineage (total 97)), 31; with human PBMCs (Influenza A (total 182)), 33; in the data set with human PBMCs (NF-kappa B signaling pathway (total 107)), 25; in the data set with human PBMCs (Pathways in cancer (total 395)), 56; in the data set with human PBMCs (Phagosome (total 168)) it was 33. The “Genes in KEGG pathway, 4-enriched” value in the data set on human PBMCs (Rheumatoid arthritis (total 99)) is on record as 25; with human PBMCs (TNF signaling pathway (total 115)), 28; with human PBMCs (Transcriptional misregulation in cancer (total 204)), 37. For the same compound, the “transcription of IFN-γ and both IL-12 subunits (IL12A, IL12B)” value in the data set on human PBMCs (PBMCs, 1 μM, 18 h) was “strongly upregulated”. For the same compound, the “transcription of IL-17A, IL-17F, IL-22 and IL-26” value in the data set with human PBMCs (PBMCs, 1 μM, 18 h) is reported as “induced transcription”. Moreover, in the data set with human PBMCs (PBMCs, 1 μM, 18 h), the “transcription of Th2-associated genes (IL-4, IL-5, IL-13, STAT6, GATA3)” value is on record as “remained unchanged”. Also, in the data set on human PBMCs (PBMCs, three donors, 1 μM, 18 h, FDR <0.05, fold-change <0.5), the “number of significantly downregulated genes” value is reported as 877. In the data set with human PBMCs (PBMCs, three donors, 1 μM, 18 h, […]), the “number of significantly upregulated genes” value is on record as 962. In addition, in data set [1] (kinetic solubility, Table S2), the “fold higher solubility of 4 than 3” value is listed as “approximately 2 fold”. Besides, the concentration in solution in data set [1] (phosphate-buffered saline, aqueous buffer, kinetic from dmso stock, kinetic, PBS pH 7.4, 2% DMSO, 2 h room temperature) (solubility at 2 h) was 58.2 µM (≈ 54.3 µg/mL).

Source of the values: publication PMC9706565, “Covalently Conjugated NOD2/TLR7 Agonists Are Potent and Versatile Immune Potentiators” (Journal of Medicinal Chemistry, 2022).
